Test results from US5747239A, “Synthetic peptides specific for the detection of antibodies to HCV, diagnosis of HCV infection and preventions thereof as vaccines” (United Biomedical, Inc., priority 1994, dated 1998).

Experiments:
Type in all cases: binding, human
[1] = test system: antibodies to HCV; assay: Envelope/NS-1 peptide ELISA, anti-HCV positive plasmapheresis donors with elevated ALT (Panel III); settings: envelope/NS-1 peptides; Panel III (17 samples); peptide 254B as a standard
Experimental: To select a panel of samples with reactivity to peptides from the envelope/NS-1 region, 97 such samples from anti-HCV positive plasmapheresis donors with elevated ALT levels were tested with peptide 254B. […] 17 samples with the greatest reactivity with peptide 254B were chosen to form a third panel (Panel III) to screen for the immunoreactivity of the other 20 peptides from the envelope/NS-1 region. The individual absorbance values of each of the 17 samples on the four peptides with the greatest reactivity, i.e. 255C (pep7), 254B (pep8), 247B (pep9), and 246D (pep10), are listed in Table 8b.

[2] = test system: antibodies to HCV; assay: Peptide ELISA for relative immunoreactivity, 8 member HCV serum panel (Panel I); settings: for absorbance of the one reactive panel member: reactive with only one of eight
Experimental: As an example to illustrate how relative (%) immunoreactivity for HCV synthetic peptides is measured, wells of 96-well plates are coated for 1 hour at 37° C., with each of the following peptides: IIH, V, VIIIE and pep11 at 5 ug/mL at 100 uL per well in 10 mM NaHCO3 buffer, pH 9.5. The peptide coated wells were then incubated with 250 uL of 3% by weight of gelatin in PBS in 37° C. for 1 hour to block non-specificprotein binding sites, followed by three washes with PBS containing 0.05% by volume of TWEEN 20 and then dried. The test specimens containing a panel of eight well-characterized HCV antibody positive patient sera were diluted with PBS containing 20% by volume normal goat serum, 1% by weight gelatin and 0.05% by volume TWEEN 20 at dilutions of 1:20 volume to volume, respectively. 200 uL of the diluted specimens were added to each of the wells and allowed to react for 15 minutes at 37° C.
The wells were then washed six times with 0.05% by volume TWEEN 20 in PBS in order to remove unbound antibodies. Horseradish peroxidase conjugated goat anti-human IgG was used as a second antibody tracer to bind with the HCV antibody-peptide antigen complex formed in positive wells. 100 uL of peroxidase labeled goat anti-human IgG at a dilution of 1:1800 in 1% by volume normal goat serum, 0.05% by volume TWEEN 20 in PBS was added to each well and incubated at 37° C. for another 15 minutes.
The wells were washed six times with 0.05% by volume TWEEN 20 PBS to remove unbound antibody and reacted with 100 uL of the substrate mixture containing 0.04% by weight orthophenylenediamine (OPD) and 0.12% by volume hydrogen peroxide in sodium citrate buffer, pH 5.0.
This substrate mixture was used to detect the peroxidase label by forming a colored product. Reactions were stopped by the addition of 100 uL of 1.0M H2 SO4 and the A492 mm measured. Results of relative immunoreactivity for each of the peptides obtained from this study are shown in Table A using peptide II H as the reference.

[3] = test system: antibodies to HCV; assay: NS-1 peptide ELISA, Panel II (asymptomatic individuals, mainland China and Taiwan)
Experimental: Wells of 96-well plates were coated for 1 hour at 37° C. with each of the 16 peptides (designated as peptides 241A-C, 231A-E, 232A-D, 233C, 234A-C), synthesized according to sequences derived from the NS-1 region (Table 3A), at 5 ug/mL at 100 uL per well in 10 mM NaHCO3 buffer, pH 9.5. Each peptide's immunoreactivity was measured as previously described (see Example 1), using an 8 member serum panel (Panel I).
A panel of serum samples from individuals coming from regions in which hepatitis C is endemic, namely mainland China and Taiwan, were tested for evidence of reactivity to these NS-1 protein derived peptides. Twenty-four samples were chosen from individuals who had no recognizable symptoms of non-A, non-B hepatitis and for whom the peptide based HCV EIA, Format C, as described in Example 11, was nonreactive. Seven of the 24 samples (29%) were reactive against one or more peptides from the NS-1 region, indicative of the presence of long term protective antibodies responsive to this region. This 7 member panel (designated as Panel II, CH1-CH7) was used to further characterize these NS-1 peptides for their immunoreactivity.
The peptide with the greatest reactivity against the serum Panel II again was pep1 (designated 231c in Table 3A). Using this peptide as a standard, the relative immunoreactivity for each of the other 15 peptides from the NS-1 region are calculated in Table 3A.

[4] = test system: antibodies to HCV; assay: EIA of NS-3 peptides before and after pH adjustment
Experimental: Peptides dissolved at 1 mg/mL in H2 O, pH 4, were titrated to pH 11 by addition of diluted NaOH. After 5 min at pH 11, the pH of the peptide solution was brought down to 7.0 using diluted HCl. Immunoreactivity of the peptides thus treated was compared with reactivity prior to pH adjustment (Table 4E). Two-to three-fold increases in A492 nm were seen. Some previously non-reactive serum samples were able to react with pH adjusted peptides. For instance, serum sample 1, which is non-reactive to 261C, has an absorbance of 1401 mA when tested with the corresponding pH adjusted peptide.

[5] = NS-5 peptides (Table 12), Panel I, pep11 as a standard
[6] = NS-3 peptides (Table 4A), Panel I, relative to pep3 (279A)
[7] = capsid peptides, Panel I, relative to VIIIE, coated at 5, 1 and 0.2 μg/mL
[8] = Arima clone 1 peptides, relative to peptide VIIIE
[9] = serum sample 1, Ctrl (prior to pH adjustment)
[10] = serum sample 1, pH adj (pH 11 for 5 min, then 7.0)

Molecule: CGSVFLIGQLFTFSPRRHWTTQGCNCSIYPGHITGHRMAWDMMMNWSPTA [254C]
- % Relative Immunoreactivity [1]: 16.7%

Molecule: CNESLNTGWLAGLIYQHKFNSSGCPERLASC [246B]
- % Relative Immunoreactivity [1]: 19.8%

Molecule: CQVPSPEFFTELDGVRLHRFAPPCKPLLREEVSFRVGLHEYPVGSQLPCEPEPD [311C]
- % IP [2, 5]: 16.8%

Molecule: CVREGNVSRCWVAMTPTVATRDGKLPATQLRRHIDLLVGSATLC [244B]
- % Relative Immunoreactivity [1]: 5.8%

Molecule: CWVAMTPIVATRDGKLPATQLRRHIDLLVGSATLC [244A]
- % Relative Immunoreactivity [1]: 3.8%

Molecule: FTDNSSPPVVPQSFQVAHLHAPTGSGKSTKPAAYA [278B]
- % IP [2, 6]: 1.4%

Molecule: GPRLGVRATRKTSERSQPRGRR [VIIIA]
- % Relative Immunoreactivity [2, 7]: 32.7%

Molecule: IPKVRRPEGRTWAQPGYPWPLYGNEGCGWAGWLLSPRGSRPSWGPTDPRRRSRNLG [IXD]
- % Relative Immunoreactivity [2, 7]: 58.9%

Molecule: KEKEKTATNNPGKNKKPRVGRIKNWNREGRKDAYQIRKRR [40 mer, reference compound]
- % Relative Immunoreactivity [2, 8]: 21.1%

Molecule: KKQRRYKEKEKTATNNPGKNKKPRVGRIKNWNREGRKDAYQIRKRR (NDTHKKQRRYKEKEKTATNNPGKNKKPRVGRIKNWNREGRKDAYQIRKRR) [50 mer, reference compound]
- % Relative Immunoreactivity [2, 8]: 17.8%

Molecule: KQNIQLINTNGSWHINSTALNCNESLNTGWLAGLIYQHKFNSSGCPERLASC [246E]
- % Relative Immunoreactivity [1]: 10.5%

Molecule: LRRLHQWISSECTTPCSGSWLRDIWDWICEVLSDFKTWLKAKLMPQL [314C]
- % IP [2, 5]: 14.2%

Molecule: LWRVSAEEYVEIRQVGDFHYVIGMTTDNLKCPCQVPSP [312C]
- % IP [2, 5]: 40.4%

Molecule: PPLGNWFGCTWMNSTGFTKVCGAPPC [232A]
- % IP ([3]; NS-1 peptides, Panel II (CH1-CH7), relative to pep1 (231C)): 88.7%
- A492 nm by EIA (mA) ([3]; Panel II sample CH-1): 202 mA
- A492 nm by EIA (mA) ([3]; Panel II sample CH-2): 261 mA
- A492 nm by EIA (mA) ([3]; Panel II sample CH-3): 935 mA
- A492 nm by EIA (mA) ([3]; Panel II sample CH-4): 1498 mA
- A492 nm by EIA (mA) ([3]; Panel II sample CH-5): 621 mA
- A492 nm by EIA (mA) ([3]; Panel II sample CH-6): 1128 mA
- A492 nm by EIA (mA) ([3]; Panel II sample CH-7): 552 mA

Molecule: PVVPQSFQVAHLHAPTGSGKSTKVPAAYA [278A]
- % IP [2, 6]: 8.2%

Molecule: PVVPQSFQVAHLHAPTGSGKSTKVPAAYAAQGYKVLVLNPS [272A]
- % IP [2, 6]: 2.1%

Molecule: RTITTGSPITYSTYGKFLADGGCSGGAYDIIICDECHSTDATSILGIGTVLDQAETAGARLVVLATATPPGSVTVPHPNIEEVALSTTGEIPFYGKAIPLEVIKGGRHLIFCHSKKKCDEL [261F]
- absorbance of the one reactive panel member ([2]; Panel I): 269 mA

Molecule: SECTTPCSGSWLRDIWDWICEVLSDFKTWLKAKLMPQL [314B]
- % IP [2, 5]: 11.6%

Molecule: TNDCPNSSIVYEAHDAILHTPGCVPCVREGNVSRC [255A]
- % Relative Immunoreactivity [1]: 9.8%

Molecule: TQGCNCSIYPGHITGHRMAWDMMMWSPTA [254A]
- % Relative Immunoreactivity [1]: 21.4%

Molecule: TWAQPGYPWPLYGNEGCGWAGWLLSPRGSRPSWGPTDPRRRSRNLG [IXC]
- % Relative Immunoreactivity [2, 7]: 57.9%

Molecule: VGGVYLLPRRGPRLGVRATRKTSERSQPRGRR [VIIIB]
- % Relative Immunoreactivity [2, 7]: 48.9%

B1: AVDFIPVENLETTMRSPVFTDNSSPPVVPQSFQVAHLHAPTGSGKSTKVPAAYAAQGYKVLVLNPS (peptide)
chain: AVDFIPVENLETTMRSPVFTDNSSPPVVPQSFQVAHLHAPTGSGKSTKVPAAYAAQGYKVLVLNPS
- % IP [2, 6]: 11.8%
- A492 nm (mA) by EIA [4, 9]: 8 mA
- A492 nm (mA) by EIA [4, 10]: 973 mA
- A492 nm (mA) by EIA ([4]; serum sample 2, Ctrl): 74 mA
- A492 nm (mA) by EIA ([4]; serum sample 2, pH adj): 255 mA
- A492 nm (mA) by EIA ([4]; serum sample 3, Ctrl): 29 mA
- A492 nm (mA) by EIA ([4]; serum sample 3, pH adj): 141 mA
- A492 nm (mA) by EIA ([4]; serum sample 4, Ctrl): 17 mA
- A492 nm (mA) by EIA ([4]; serum sample 4, pH adj): 158 mA

B2: GGAYDIIICDECHSTDATSILGIGTVLDQAETAGARLVVLATATPPGSVTVPHPNIEEVALSTTGEIPFYGKAIPLEVIKGGRHLIFCHSKKKCDEL (peptide)
chain: GGAYDIIICDECHSTDATSILGIGTVLDQAETAGARLVVLATATPPGSVTVPHPNIEEVALSTTGEIPFYGKAIPLEVIKGGRHLIFCHSKKKCDEL
- absorbance of the one reactive panel member ([2]; Panel I): 307 mA

B3: AEEDEREISVPAEILRKSRRFAQALPVWARPDYNPPLVETWKKPDYEPPVVHGCPLPPPKSPPVPPPRKKRT (peptide)
chain: AEEDEREISVPAEILRKSRRFAQALPVWARPDYNPPLVETWKKPDYEPPVVHGCPLPPPKSPPVPPPRKKRT
- % IP [2, 5]: 97.2%

B4: KKGEASNGEAENDTHKKQRRYKEKEKTATNNPGKNKKPRVGRIKNWNREGRKDAYQIRKRR (peptide)
peptide: KKGEASNGEAENDTHKKQRRYKEKEKTATNNPGKNKKPRVGRIKNWNREGRKDAYQIRKRR
- % Relative Immunoreactivity [2, 8]: 20.7%

B5: GRRQPIPKVRRPEGRTWAQPGYPWPLYGNEGCGWAGWLLSPRGSRPSWGPTDPRRRSRNLG (peptide)
peptide: GRRQPIPKVRRPEGRTWAQPGYPWPLYGNEGCGWAGWLLSPRGSRPSWGPTDPRRRSRNLG
- % Relative Immunoreactivity [2, 7]: 50.2%

B6: GCSGGAYDIIICDECHSTDATSILGIGTVLDQAETAGARLVVLATATPPGSVTVPHPNIEEVAL (peptide)
chain: GCSGGAYDIIICDECHSTDATSILGIGTVLDQAETAGARLVVLATATPPGSVTVPHPNIEEVAL
- A492 nm (mA) by EIA [4, 9]: 628 mA
- A492 nm (mA) by EIA [4, 10]: 1604 mA
- A492 nm (mA) by EIA ([4]; serum sample 2, Ctrl): 148 mA
- A492 nm (mA) by EIA ([4]; serum sample 2, pH adj): 466 mA
- A492 nm (mA) by EIA ([4]; serum sample 3, Ctrl): 9 mA
- A492 nm (mA) by EIA ([4]; serum sample 3, pH adj): 625 mA
- A492 nm (mA) by EIA ([4]; serum sample 4, Ctrl): 464 mA
- A492 nm (mA) by EIA ([4]; serum sample 4, pH adj): 1144 mA
